Values quoted from earlier work in patent US20200093783A1, “Preparation and Anti-HepG2 Application for Urushiol-Based pH Response Micelle Encapsulating Paclitaxel” (Nanjing Zhongsen Biological Technology Co., Ltd., priority 2019, published 2020).

System: most of tumor cells
Details: background statement

Substance: urushiol
- IC50 (50% inhibiting concentration): 4 mg/L
